# Test results published in ChEMBL document CHEMBL1201862, “PubChem BioAssay data set” (2004).
# Activity calls are given as the source filed them.
# Legend:
# [1] = HEK293 Cytotoxicity Assay Measured in Cell-Based System Using Plate Reader - 7071-01_Inhibitor_Dose_CherryPick_Activity_Set2.; assay type: functional
# HEK293 = assay: viability loss in HEK293T cells – cell-based, ATP luminescence, cherry-pick samples, cytotoxicity control, dose response (AID 687005); assay type: functional; conditions: Homo sapiens;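 further: cells exposed to compound for 48 hours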
# [2] = glucagon-like peptide-1 release potency in STC-1, concentration-response, half-maximal inhibitory concentration in the STC-1 line (AID 1117345); assay type: functional, cell-based
# [3] = Potency on glucagon-like peptide 1 release, dose-response in NCI-H716 cell line, half maximal inhibitory concentration (AID 1117344); assay type: functional, cell-based
# [4] = CTGF mRNA reduction in DLD1 cells – cell-based, DLD1 colon cancer, RT-qPCR, cherry-pick, dose response (AID 1053122); assay type: functional; conditions: Cancer cell lines
# [5] = YAP1 overexpression rescue of CTGF inhibition – DLD1 cells, RT-qPCR, cherry-pick, mechanism study for YAP1 pathway inhibitor project, dose response (AID 1053127); assay type: functional, cell-based; conditions: DLD-1
# [6] = growth inhibition of PfATP4-mutant resistant parasites – NITD609-resistant line, SYBR Green, dry powder, dose response (AID 1159571); assay type: functional, cell-based;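 further: parasites synchronized at ring stage by sorbitol before testing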
# [7] = Plasmodium falciparum Dd2 Sybr green parasite growth Measured in Cell-Based and Microorganism Combination System Using Plate Reader - 2153-01_Inhibitor_Dose_DryPowder_Activity_Set3.; assay type: functional
# [8] = growth inhibition of yeast DHODH-expressing 3D7 parasites – SYBR Green, dry powder samples, dose response (AID 1159570); assay type: functional, cell-based;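 further: parasite growth measured after 72 hours of compound exposure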
# [9] = toxicity to human HepG2 hepatoma cells – cell-based, plate reader, dry powder samples, cytotoxicity control, dose response (AID 1159569); assay type: functional;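 further: inhibitor potency with signal falling toward the positive control level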
# [10] = Dd2 malaria parasite growth inhibition potency – SYBR Green, dry powder samples, dose response (AID 1159566); assay type: functional, cell-based;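 further: potency for growth inhibition with lower SYBR green DNA signal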
# [11] = P. falciparum Dd2 growth inhibitors, dose response, SYBR Green, cherry-picked samples (AID 1159567); assay type: functional, cell-based
# [12] = toxicity to human hepatoma HepG2 cells – cell-based, cherry-picked samples, cytotoxicity control, dose response (AID 1159577); assay type: functional
# Cytochrome P450 2C19 = Cytochrome P450 2C19 (Homo sapiens, UniProt P33261); assay: Cytochrome panel assay with activity outcomes. Panel member name: p450-cyp2c19 Compounds with AC50 equal or less than 10 uM are considered active; assay type: functional; conditions: read-out: AC50
# Cytochrome P450 1A2 = biological target: T1, Cytochrome P450 1A2 (Homo sapiens, UniProt P05177);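 further: PubChem cytochrome P450 panel assay, CYP1A2 panel member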
# T1 sequence (P05177 whole entry): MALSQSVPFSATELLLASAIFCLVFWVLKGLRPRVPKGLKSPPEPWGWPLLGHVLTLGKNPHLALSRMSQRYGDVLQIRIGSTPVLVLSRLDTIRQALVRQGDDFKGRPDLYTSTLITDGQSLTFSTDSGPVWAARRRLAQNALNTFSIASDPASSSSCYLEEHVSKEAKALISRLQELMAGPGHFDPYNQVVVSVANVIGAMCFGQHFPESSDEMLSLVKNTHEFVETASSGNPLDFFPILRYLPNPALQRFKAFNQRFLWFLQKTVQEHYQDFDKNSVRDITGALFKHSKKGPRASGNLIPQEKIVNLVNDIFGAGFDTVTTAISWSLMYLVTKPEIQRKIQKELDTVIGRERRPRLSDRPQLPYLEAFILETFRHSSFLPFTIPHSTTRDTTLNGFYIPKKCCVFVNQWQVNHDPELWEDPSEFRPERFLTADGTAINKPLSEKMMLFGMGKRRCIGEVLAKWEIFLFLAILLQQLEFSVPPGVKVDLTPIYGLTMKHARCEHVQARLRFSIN
# Cytochrome P450 2D6 = Cytochrome P450 2D6 (Homo sapiens, UniProt P10635);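 further: CYP2D6 member of a cytochrome P450 panel assay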
# [13] = IC50 of insulin release inhibition, rat insulinoma INS-1E line, 5 mM glucose, cell-based (AID 1117331); assay type: functional
# Cytochrome P450 2C19, sequence (P33261 whole entry): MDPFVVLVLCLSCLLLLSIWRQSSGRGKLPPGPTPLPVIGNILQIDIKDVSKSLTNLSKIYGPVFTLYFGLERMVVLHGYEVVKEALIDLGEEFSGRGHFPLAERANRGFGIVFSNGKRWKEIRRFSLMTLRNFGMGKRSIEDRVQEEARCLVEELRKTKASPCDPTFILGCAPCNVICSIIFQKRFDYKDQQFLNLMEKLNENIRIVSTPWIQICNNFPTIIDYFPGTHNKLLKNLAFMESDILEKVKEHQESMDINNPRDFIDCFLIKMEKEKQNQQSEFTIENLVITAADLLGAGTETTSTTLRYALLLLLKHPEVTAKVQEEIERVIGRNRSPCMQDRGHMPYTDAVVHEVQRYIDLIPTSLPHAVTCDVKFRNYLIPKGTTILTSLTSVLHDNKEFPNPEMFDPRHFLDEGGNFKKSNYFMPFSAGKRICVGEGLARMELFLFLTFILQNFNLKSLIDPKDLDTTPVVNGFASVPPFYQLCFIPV
# Cytochrome P450 2D6, sequence (P10635 whole entry): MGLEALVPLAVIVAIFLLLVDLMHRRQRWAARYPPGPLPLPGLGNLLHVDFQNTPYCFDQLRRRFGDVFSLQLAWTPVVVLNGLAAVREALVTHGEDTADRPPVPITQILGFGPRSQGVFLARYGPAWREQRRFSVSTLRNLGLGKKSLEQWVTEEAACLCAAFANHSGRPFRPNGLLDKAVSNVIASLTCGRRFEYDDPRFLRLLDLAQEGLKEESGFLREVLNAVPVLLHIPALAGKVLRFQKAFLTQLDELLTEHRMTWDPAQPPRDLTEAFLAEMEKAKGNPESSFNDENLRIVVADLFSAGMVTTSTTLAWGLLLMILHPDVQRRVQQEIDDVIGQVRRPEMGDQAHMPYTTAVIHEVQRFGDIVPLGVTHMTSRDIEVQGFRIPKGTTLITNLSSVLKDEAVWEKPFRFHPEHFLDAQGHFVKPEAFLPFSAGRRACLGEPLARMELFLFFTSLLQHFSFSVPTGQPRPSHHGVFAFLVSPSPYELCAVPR
smiles,measurement,setting,value
C[C@H]1CCCCO[C@H](CN(C)S(=O)(=O)c2ccc(Cl)cc2)[C@@H](C)CN([C@@H](C)CO)C(=O)c2cc(NS(=O)(=O)c3cccs3)ccc2O1,AC50,[1],15.6 µM (active)
same,AC50,HEK293,15.6 µM (active)
CN[C@@H]1[C@H](O)[C@H](NC)[C@H]2O[C@@]3(O)C(=O)C[C@@H](C)O[C@H]3O[C@@H]2[C@H]1O,IC50,[2],> 40 µM (inactive)
same,IC50,[3],> 40 µM (inactive)
COc1ccccc1NC(=O)N1CCCCN2[C@H](CO)[C@H](c3ccc(-c4cccc(C#N)c4)cc3)[C@@H]2C1,AC50,[4],1.44 µM (active)
same,AC50,[5],11.6 µM (active)
COc1ccccc1C#Cc1ccc([C@H]2[C@@H](CO)N(C(=O)C3CC3)[C@H]2C#N)cc1,AC50,[6],1.09 µM (active)
same,AC50,[7],2.28 µM (active)
same,AC50,[8],2.22 µM (active)
same,AC50,[9],> 100 µM (inactive)
same,AC50,[10],0.457 µM (active)
N#C[C@@H]1[C@H](c2ccc(-c3cccc(F)c3)cc2)[C@@H](CO)N1C(=O)NC1CCCC1,AC50,[6],0.239 µM (active)
same,AC50,[7],0.326 µM (active)
same,AC50,[8],13 µM (active)
same,AC50,[9],> 100 µM (inactive)
same,AC50,[10],0.117 µM (active)
same,AC50,[11],0.483 µM (active)
O=C(Nc1ccc(F)cc1)N1C[C@H]2[C@@H](c3ccccc31)[C@H](CO)N2C(=O)c1ccccc1F,AC50,[12],> 39 µM (inactive)
same,AC50,[11],4.75 µM (active)
CC[C@H](c1ccc(O)cc1)[C@@H](CC)c1ccc(O)cc1 [HEXESTROL],AC50,Cytochrome P450 2C19,3.16 µM (inconclusive)
same,IC50,[2],6.88 µM (inactive)
same,AC50,Cytochrome P450 1A2,12.6 µM (inconclusive)
same,IC50,[3],> 40 µM (inactive)
same,AC50,Cytochrome P450 2D6,15.8 µM (inconclusive)
COc1ccc(CN(CCN(C)C)c2ccccn2)cc1 [PYRILAMINE],IC50,[13],15.4 µM (inactive)
